{"source": "paper PMC6588697", "about": "“Lugdunin amplifies innate immune responses in the skin in synergy with host- and microbiota-derived factors” (Nature Communications, 2019)", "system": "mouse skin", "assay": "Immune cell composition of mouse skin after epicutaneous treatment (flow cytometry)", "type": "in vivo, C57BL/6 WT, MyD88-ko, 5xTLR-ko mice", "details": "for percentage of monocytes (Ly6C+Ly6G−) of CD11b+CD45+ live cells / percentage of neutrophils (Ly6C+Ly6G+) of CD11b+CD45+ live cells: Fig 3d", "protocol": "Fig. 3 Epicutaneous lugdunin recruits phagocytic cells. a Schematic overview of the mouse experiments: 6–8-week-old female C5BL/6 wild-type (WT), MyD88-ko, or 5xTLR-ko mice were epicutaneously treated with 1.5 µg lugdunin or phosphate-buffered saline (PBS) as a control. After 24 h, mice were euthanized, immune cells were isolated from treated skin areas, and immune cell composition was analyzed by flow cytometry. b Shown is the mean percentage of CD45+ live cells in mouse skin of 10 C57BL/6 WT mice ± s.e.m. One mouse is represented as two dots analyzed by two different stainings. c Pie charts show the mean percentage of the different immune cell subsets in the skin of 10 WT mice after 24 h of PBS or lugdunin treatment. d Shown are representative flow cytometry data (left panel) and the mean percentage of neutrophils (Ly6C+Ly6G+) and monocytes (Ly6C+Ly6G−) pregated on CD11b+CD45+ live cells (see Supplementary Fig. 3a, f for the gating strategy) in mouse skin ± s.e.m. One dot represents one mouse. *P < 0.05. e Representative myeloperoxidase (MPO)-stained paraffin-embedded mouse skin sections. Scale bar, 100 µM. Source data are provided as a Source Data file TEXT PRINTED IN THE PICTURE: (c) PBS: NK cells: 21%; B cells: 0%; T cells: 10%; Dendritic cells: 8%; CD11b+ cells: 43%; Others: 18%; Macrophages: 73%; Monocytes: 15%; Neutrophils: 3%; Others: 9% | (c) Lugdunin: NK cells: 18%; B cells: 0%; T cells: 11%; Dendritic cells: 10%; CD11b+ cells: 45%; Others: 16%; Macrophages: 64%; Monocytes: 21%; Neutrophils: 6%; Others: 9% | (d) PBS: Monocytes 13,3 (WT); Neutrophils 2,51 (WT); Q4 83,6 (WT); Q3 0,53 (WT); Monocytes 2,34 (MyD88-ko); Neutrophils 0,95 (MyD88-ko); Q4 94,4 (MyD88-ko); Q3 2,27 (MyD88-ko); Monocytes 12,8 (5xTLR-ko); Neutrophils 0,88 (5xTLR-ko); Q4 85,0 (5xTLR-ko); Q3 1,32 (5xTLR-ko) | (d) Lugdunin: Monocytes 17,3 (WT); Neutrophils 11,1 (WT); Q4 70,6 (WT); Q3 0,99 (WT); Monocytes 3,14 (MyD88-ko); Neutrophils 0,54 (MyD88-ko); Q4 94,9 (MyD88-ko); Q3 1,41 (MyD88-ko); Monocytes 12,9 (5xTLR-ko); Neutrophils 1,74 (5xTLR-ko); Q4 84,3 (5xTLR-ko); Q3 1,06 (5xTLR-ko) DOUBTS OF THE COPYIST ABOUT THIS PICTURE: Panel c: the percentages are printed on the pie slices without cell-type names. They were matched to cell types only by the colour legend, so the match is not certain, especially among the blue shades of the lower pies. / PBS is the vehicle control, not a test substance. Its values are given because they are printed under that name. / Panel d: the quadrant numbers are in very small print, so 3, 5, 6, 8 and 9 cannot be told apart with certainty. / PBS WT, Monocytes 13,3: either 3 could be 8 / PBS WT, Neutrophils 2,51: 5 could be 6 / PBS WT, Q4 83,6: 8, 3 and 6 uncertain / PBS WT, Q3 0,53: 5 and 3 uncertain / PBS MyD88-ko, Monocytes 2,34: 3 could be 8 / PBS MyD88-ko, Neutrophils 0,95: 9 and 5 uncertain / PBS MyD88-ko, Q4 94,4: 9 uncertain / PBS 5xTLR-ko, Monocytes 12,8: 8 could be 3 / PBS 5xTLR-ko, Neutrophils 0,88: either 8 uncertain / PBS 5xTLR-ko, Q4 85,0: 8 and 5 uncertain / PBS 5xTLR-ko, Q3 1,32: 3 could be 8 / Lugdunin WT, Monocytes 17,3: 3 could be 8 / Lugdunin WT, Q4 70,6: 6 could be 8 / Lugdunin WT, Q3 0,99: either 9 uncertain / Lugdunin MyD88-ko, Monocytes 3,14: 3 could be 8 / Lugdunin MyD88-ko, Neutrophils 0,54: 5 could be 6 / Lugdunin MyD88-ko, Q4 94,9: either 9 uncertain / Lugdunin 5xTLR-ko, Monocytes 12,9: 9 could be 8 / Lugdunin 5xTLR-ko, Q4 84,3: 8 and 3 uncertain / Lugdunin 5xTLR-ko, Q3 1,06: 6 could be 8\nTo analyze the immune cell composition and cytokines in the skin, 15 µL containing 1.5 μg lugdunin or PBS as a control were epicutaneously applied for 24 h on the shaved back skin of C57BL/6 WT/MYD88-ko/5xTLR-ko mice. After 24 h, mice were euthanized and relevant skin areas or 4 mm skin punches were removed for immune cell analysis and LEGENDplex^TM (BioLegend) cytokine analysis. […]", "key": {"[1]": {"details": "5xTLR-ko mice, 1.5 µg lugdunin 24 h, one value per mouse"}, "[2]": {"details": "MyD88-ko mice, 1.5 µg lugdunin 24 h, one value per mouse"}, "[3]": {"details": "WT mice, 1.5 µg lugdunin 24 h, one value per mouse"}}, "note": "Several values for one entry are separate records, joined by “and”; a condition that tells them apart may be missing. Equal values may be shown once."}
{"substance": "Lugdunin", "values": [{"measurement": "percentage of monocytes (Ly6C+Ly6G−) of CD11b+CD45+ live cells", "setting": "[1]", "result": "completely impaired and 20.3% and 17.1% and 9.43% and 21.4% and 16.9% and 6.11% and 12.9%"}, {"measurement": "percentage of neutrophils (Ly6C+Ly6G+) of CD11b+CD45+ live cells", "setting": "[1]", "result": "completely impaired and 5.72% and 2.72% and 4.06% and 8.41% and 1.29% and 0.57% and 1.74%"}, {"measurement": "percentage of CD45+ live cells in mouse skin", "setting": "10 WT mice, 1.5 µg lugdunin epicutaneous 24 h, each mouse two values (two stainings), Fig 3b", "result": "14.9% and 13.5% and 14.7% and 11.7% and 14.6% and 11.5% and 13.9% and 11.3% and 13.1% and 10.2% and 12.2% and 10.7% and 12.3% and 10.1% and 6.9% and 8.55%"}, {"measurement": "percentage of monocytes (Ly6C+Ly6G−) of CD11b+CD45+ live cells", "setting": "[2]", "result": "completely impaired and 8.96% and 15.5% and 8.8% and 15.6% and 3.14% and 1.49% and 4.64% and 1.54%"}, {"measurement": "percentage of neutrophils (Ly6C+Ly6G+) of CD11b+CD45+ live cells", "setting": "[2]", "result": "completely impaired and 2.26% and 5.17% and 2.81% and 2.01% and 0.54% and 0.23% and 0.5% and 0.44%"}, {"measurement": "percentage of monocytes (Ly6C+Ly6G−) of CD11b+CD45+ live cells", "setting": "[3]", "result": "significantly enhanced recruitment and 15.8% and 17.3% and 13.3% and 8.16% and 21.5% and 17.9% and 10.5% and 16.5% and 16% and 7.28%"}, {"measurement": "percentage of neutrophils (Ly6C+Ly6G+) of CD11b+CD45+ live cells", "setting": "[3]", "result": "significantly enhanced recruitment and 2.57% and 6.43% and 4.87% and 2.11% and 8.34% and 11.1% and 2.51% and 1.25% and 4.02% and 5.05%"}, {"measurement": "NK cells, % NK1.1+ cells of live CD45+ cells", "setting": "WT mice, 1.5 µg lugdunin 24 h, one value per mouse, Supp Fig 3b", "result": "17.7% and 16.5% and 19.9% and 14.6% and 15.5% and 15.6% and 22.8% and 24.4% and 19.7% and 17.2%"}, {"measurement": "B cells, % CD19+ cells of live CD45+ cells", "setting": "WT mice, 1.5 µg lugdunin 24 h, one value per mouse, Supp Fig 3c", "result": "0% and 0.14% and 0.15% and 0.03% and 0.04% and 0.05% and 0.01% and 0.02%"}, {"measurement": "Dendritic cells, % CD11c+ cells of live CD45+ cells", "setting": "WT mice, 1.5 µg lugdunin 24 h, one value per mouse, Supp Fig 3e", "result": "16.5% and 7.96% and 9.38% and 7.83% and 7.66% and 8.63% and 12.4% and 7.01% and 13.5% and 11.2%"}, {"measurement": "CD11b+ cells, % of live CD45+ cells", "setting": "WT mice, 1.5 µg lugdunin 24 h, one value per mouse, Supp Fig 3f", "result": "25.3% and 49.5% and 44.6% and 53.3% and 45% and 48.5% and 39.3% and 50.8% and 43.6%"}, {"measurement": "Macrophages, % F4/80+ cells of CD11b+ CD45+ live cells", "setting": "WT mice, 1.5 µg lugdunin 24 h, one value per mouse, Supp Fig 3g", "result": "slightly reduced and 61.4% and 62.3% and 69.6% and 70.5% and 63.1% and 61.1% and 64.2% and 53.1% and 77.9%"}, {"measurement": "T cells, % CD3+ cells of live CD45+ cells", "setting": "WT mice, 1.5 µg lugdunin 24 h, one value per mouse, Supp Fig 3d", "result": "14.9% and 10.6% and 8% and 7.67% and 10.1% and 12.6% and 9.79% and 11.5% and 8.32% and 13.4%"}]}
